The text below walks through data of patent US20190183812A1, “Compounds For The Treatment Of Neuromuscular Disorders” (NMD PHARMA A/S, priority 2017, published 2019).

One experiment has as its system isolated human muscles. Conditions: 150 μM; elevated K+ and TTX.
The next experiment has as its target T1, CIC-1 ion channels (Homo sapiens, UniProt P35523).
T1 construct: Isolated soleus muscles from adult rats or human abdominal muscles preparations were placed in a chamber; from tissue; host or cells: human abdominal muscle from patients
Briefly: Resting membrane conductance (Gm), three-electrode technique, human muscle: Kd for CIC-1 inhibition. The class given is cell-based. The following applies: concentration that reduced Gm by 50%.

The test system of experiment [1] is isolated rat soleus muscles. The experiment can be described thus: Recovery of nerve-stimulated force in isolated rat soleus muscles exposed to sub-maximal tubocurarine. Conditions: Rattus norvegicus, 40 min; read-out: 50 μM % change after addition. Here is the method: Experiments were performed using rat soleus muscles from either young (4-wk-old) or adult Wistar rats (12-14-week-old). Animal handling, killing and isolation of muscle is described elsewhere All experiments were performed using normal Krebs-Ringer bicarbonate solution (NKR). In solutions with elevated Mg^2+, MgCl2 was added to NKR-solution causing minor increases in osmolarity and ionic strength. In solutions with elevated K^+, 4 mM NaCl was replaced by 4 mM KCl in the NKR.
In all contraction experiments, isometric force production was determined and force produced during contractions was quantified by measuring the integral of the force response (AUC). Stimulation and force recordings have been described elsewhere. […] In these latter experiments, extracellular recordings of action potentials (M-waves) could be measured without temporal overlap with stimulation artefacts.
The aim was to find compounds that by inhibition of CIC-1 channels can recover nerve-stimulated force under conditions of fatigue including conditions where fatigue is caused by compromised neuromuscular transmission. Neuromuscular transmission dysfunction can develop because of both pre- and/or post-synaptic complications in connection with a disorder or as part of neuromuscular blockade during/after surgery. In the initial series of drug testing, experiments were performed with isolated muscles in the presence of sub-maximal ACh receptor antagonist tubocurarine. Since the inclusion of tubocurarine caused a partial loss of neuromuscular transmission this experiment mimics the conditions in myasthenia gravis and neuromuscular blockade. To mimic conditions with pre-synaptic complication (Lambert Eaton syndrome, motor neuron disorder, polyneuropathy) the intact nerve-muscle preparations were incubated at elevated extracellular Mg^2+, which is known to suppress release of ACh from nerve terminals of motor neurons.
To identify CIC-1 inhibitors that could be used for treatment of neuromuscular disorders we repeated the experiment shown in FIG. 2A but instead of adding 9-AC we added the compounds of interest in different concentrations within the range from 10 to 500 μM. […] For comparison with the muscle only exposed to tubocurarine (grey trace), the two traces have been overlaid. […] For comparison, muscles only exposed to tubocurarine have been included. The dotted line indicates the recovery of force with C8 when compared to the force production before its addition. This value was used in Table 1 for evaluation of the efficacy of the different compounds in recovering force.

Experiment [2] addresses rat soleus muscles. The experiment can be described thus: Tubocurarine concentration required to depress nerve-stimulated force by 50% (Kd,tub), combination with acetylcholinesterase inhibitors. The protocol: FIGS. 5A-5E. […] Muscles from 4-week-old rats were stimulated to contract by activating the motor nerve with short duration pulses in field stimulation. Muscles contracted every 10 min for 2 s in response to 30 Hz stimulation. Four different experimental conditions were used. […] After this pre-incubation, increasing concentrations of tubocurarine were added to the bath solutions with 60 min (corresponding to six contractions) between each increase in tubocurarine. […] FIG. 5C similar to FIG. 5A but this muscle had been pre-incubated with neostigmine. […] The force integral (AUC) was determined at each tubocurarine concentration. Such AUC determinations were plotted against tubocurarine concentration for each muscle.
CIC-1 is a novel target in treatment of neuromuscular complications and it was therefore explored whether this approach for symptomatic treatment could be used in combination with existing symptomatic treatment approaches. In myasthenia gravis, which in isolated muscles was mimicked by tubocurarine, the symptoms of muscle fatigue are most commonly treated with inhibitors of acethylcholineesterase of which neostigmine and pyridostigmine are examples. Also, neostigmine is the most commonly used reversal agent of neuromuscular blocked after surgery. […] FIG. 5A-D show recordings of nerve-stimulated force production at different tubocurarine concentrations when tested under the four experimental conditions. […] To quantify the effect of compounds on tubocurarine sensitivity, the force at the different tubocurarine concentrations was determined. In plots of nerve-stimulated force against tubocurarine concentration (FIG. 5E) Kd,tub was determined by fitting four parameter sigmoidal functions to the data and the Kd,tub for the different compounds have been collected in Table 4.

The test system of experiment [3] is rat soleus muscles. The experiment can be described thus: Mg2+ concentration required to depress nerve-stimulated force by 50% (Kd,Mg2+), combination with 3,4-AP. Here is the method:
FIGS. 6A-6E. […] Muscles from 4-week-old rats were stimulated to contract by activating the motor nerve with short duration pulses in field stimulation. Muscles contracted every 10 min for 2 s in response to 30 Hz stimulation. Four different experimental conditions were used. […] C) similar to A) but this muscle had been pre-incubated with 3,4-AP. […] The force integral (AUC) was determined at each extracellular Mg^2+ concentration. AUC was plotted against Mg^2+ concentration and the data was fitted to a sigmoidal function. This provided the extracellular Mg^2+ concentration that was required to reduce the nerve-stimulated force to 50% (Mg50) under the four different conditions (see Table 5).
While the use of tubocurarine mimics conditions with reduced neuromuscular transmission due to post-synaptic dysfunction (myasthenia gravis, neuromuscular blockade), the experiments with elevated extracellular Mg^2+ mimics conditions with pre-synaptic dysfunction akin to a range of neuromuscular disorders including Lambert Eaton syndrome, motor neuron disorders and polyneuropathy. Patients with Lambert Eaton syndrome are commonly treated with inhibitors of voltage gated K^+ channels such as 3,4-diaminopyridine (3,4-AP). Based on this it was determined whether recovery of nerve-stimulated force at elevated extracellular Mg^2+ with CIC-1 inhibiting compounds could be added to force recovery with 3,4-AP. […] FIG. 6A-D show recordings of nerve-stimulated force production at different Mg^2+ concentrations when tested under these four experimental conditions. […] To quantify the effect of compounds on Mg^2+ sensitivity the force at the different Mg^2+ concentrations was determined. In plots of nerve-stimulated force against Mg^2+ concentration (FIG. 6E) the Kd,Mg^2+ was determined by fitting four parameter sigmoidal function to the data. Kd, Mg^2+ for the different compounds have been collected in Table 5.

The test system of experiment [4] is rats. Briefly: Rotarod running performance in passive immunization (MAB35) rat model of myasthenia gravis. The class given is in vivo. The protocol:
FIG. 10. […] Prior to I.P. injection of MAB35 the animals had been familiarized to the rotarod over three training sessions distributed over two days. […] After this treatment performance was monitored every second hour. *Indicates significant different as evaluated using student t-test.
(§1) In both series of experiments, running performance was tested on a rotarod using a protocol where the rod was accelerated gradually over a 5 min period, and the running time and covered distance before falling off the rod were measured. […] Experiments with tubocurarine were carried out over two days, and on each day the effect of tubocurarine on running performance was tested. On the first day only tubocurarine was injected. […] On the second day, the animals were first allowed to run on the rotarod, and all animals performed normally. […] The allocation of the animals into the two groups (C8 or sham) was random and unknown to the experimenter (blinded experimental design).
In experiments with MAB35, animals were first familiarized with the rotarod over two consecutive days and then injected I.P. with MAB35. After injection, rotarod performance was then again monitored regularly over the consecutive two days. […] A considerable number of animals, however, became moribund failing to walk and they had altered ventilation (rapid) and pronounced ptosis. These animals were not included in experiments. […]
For orientation: In the rotarod test animals must keep their balance on a rotating rod.

The test system of experiment [5] is rats. Briefly: Rotarod running performance of rats after I.P. tubocurarine (myasthenia like phenotype). The class given is in vivo, rat. Conditions: 20 mg/kg I.P., 2 hrs before tubocurarine 0.13 mg/kg. The protocol: FIGS. 9A-9B. […] FIG. 9A illustrates the design of the experiments. Prior to Day One the animals had been familiarized to the rotarod in three training sessions distributed over two days.
as §1
In the first series of in vivo experiments, myasthenia gravis was simply mimicked by I.P. injection of tubocurarine (0.13 mg/kg) in animals that had been familiarized to running on the rotarod. On the first of two consecutive days, tubocurarine was injected I.P. and the running performance of the animal was tested 21 minutes after this injection. On the second day of experimentation, the animals first performed a test run to ensure that they were no longer affected by the tubocurarine injected the day before. […]

Experiment [6] relates to rat soleus muscles. Type of experiment: cell-based. Conditions: 10 and 25 μM; 1 μM μ-conotoxin GiiiB.

T1 sequence (P35523 whole entry): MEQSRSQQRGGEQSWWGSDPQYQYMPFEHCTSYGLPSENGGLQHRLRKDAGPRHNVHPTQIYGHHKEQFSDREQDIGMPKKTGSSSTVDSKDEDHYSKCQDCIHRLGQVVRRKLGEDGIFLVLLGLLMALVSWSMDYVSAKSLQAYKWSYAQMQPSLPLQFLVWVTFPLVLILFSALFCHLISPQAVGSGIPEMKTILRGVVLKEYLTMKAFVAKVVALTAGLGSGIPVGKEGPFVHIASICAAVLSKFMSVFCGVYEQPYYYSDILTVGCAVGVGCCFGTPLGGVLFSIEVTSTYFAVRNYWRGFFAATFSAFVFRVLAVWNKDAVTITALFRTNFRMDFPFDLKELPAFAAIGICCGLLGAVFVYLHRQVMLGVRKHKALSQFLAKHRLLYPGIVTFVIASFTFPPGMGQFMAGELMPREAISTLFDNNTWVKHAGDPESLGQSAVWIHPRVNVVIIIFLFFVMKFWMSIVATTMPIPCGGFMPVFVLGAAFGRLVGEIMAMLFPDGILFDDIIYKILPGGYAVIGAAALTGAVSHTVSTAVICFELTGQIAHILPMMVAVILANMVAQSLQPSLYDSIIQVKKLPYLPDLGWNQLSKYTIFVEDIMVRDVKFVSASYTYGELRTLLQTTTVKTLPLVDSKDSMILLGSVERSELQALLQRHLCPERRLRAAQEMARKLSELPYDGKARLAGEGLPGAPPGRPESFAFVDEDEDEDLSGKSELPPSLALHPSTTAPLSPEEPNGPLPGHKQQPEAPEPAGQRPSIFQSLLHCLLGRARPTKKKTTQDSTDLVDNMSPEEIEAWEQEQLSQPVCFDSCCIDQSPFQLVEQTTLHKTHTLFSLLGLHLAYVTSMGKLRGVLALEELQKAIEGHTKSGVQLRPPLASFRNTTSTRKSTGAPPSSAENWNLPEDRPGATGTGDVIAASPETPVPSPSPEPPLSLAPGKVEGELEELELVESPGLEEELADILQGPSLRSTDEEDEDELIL

For the molecule `C[C@H](Oc1ccc(Br)cc1)C(=O)O` [Compound C8, (2S)-2-(4-bromophenoxy)propanoic acid], the contractile force result in the experiment with isolated human muscles is “markedly recovery”. The Kd – broadly, the constant that tells how readily two partners part at equilibrium – at CIC-1 ion channels came out at 5.5 µM; at rat soleus muscles [2] (Compound (50 μM) + Neostigmine (10 nM)), 0.218 ± 0.018 µM; on rat soleus muscles [2] (Compound (50 μM) + Pyridostigmine (100 nM)) it was 0.186 ± 0.005 µM; at rat soleus muscles [2] (Compound (50 μM) alone), 0.177 ± 0.007 µM; at rat soleus muscles [3] (Compound (50 μM) + 3,4-AP (10 μM)), 7800 ± 500 µM; on rat soleus muscles [3] (Compound (50 μM) alone) it was 4000 ± 100 µM. In addition, the activation at 50 µM in experiment [1] was found to be 16%. In addition, the “effect of combination on recovery of neuromuscular transmission” value in the experiment on rat soleus muscles [3] (C8 and 3,4-diaminopyridine together) was “unexpected synergistic effect”. For the same molecule, the “rotarod performance after injection” value in the experiment with rats [4] (20 mg/kg) is recorded as “decline was reduced”; in the experiment on rats [4] (30 mg/kg) it was “clear recovery of performance”. Also, in the experiment with rats [5], the “increase in distance run on the second day compared to the first day” value is recorded as “around 150%”. In the experiment on rat soleus muscles [6], the EPP amplitude entry is “significantly larger EPPs”.
